In ChEMBL document CHEMBL1201862, “PubChem BioAssay data set” (2004):
Active and inactive are the calls of the source.

Legend:
Mu-type opioid receptor = Mu-type opioid receptor (Homo sapiens, UniProt P35372); format: functional, cell-based;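 note: U2OS cells with beta-arrestin recruitment to OPRM1 by beta-gal complementation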
[1] = target: 5-hydroxytryptamine receptor 2A (Mus musculus, UniProt P35363); format: functional, cell-based;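 note: CHO-K1 cells with tagged receptor and beta-arrestin; agonist potency measured as compound-induced activation of the receptor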
[2] = target: DNA dC->dU-editing enzyme APOBEC-3A (Homo sapiens, UniProt P31941); test: A3A deaminase inhibition for selectivity – biochemical, dose response (AID 504722); format: functional
[3] = target: DNA dC->dU-editing enzyme APOBEC-3G (Homo sapiens, UniProt Q9HC16); test: Dose Response confirmation of small molecule APOBEC3G DNA Deaminase Inhibitors via a fluorescence-based single-stranded DNA deaminase assay. [Related pubchem assays (depositor defined):AID493012, AID493028]; format: functional
Beta-galactosidase [4] = target: T1, Beta-galactosidase (Escherichia coli, UniProt Q8VNN2); test: PubChem AID 485352; format: functional
[5] = target: T2, Type-1 angiotensin II receptor (Homo sapiens, UniProt P30556); test: antagonism of angiotensin II type 1 receptor – cell-based, uHTS hits, selectivity assay for APJ receptor antagonist project, dose response (AID 463214); format: functional;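 note: antagonist potency against angiotensin II stimulated AT1 response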
T2 sequence (P30556 whole entry): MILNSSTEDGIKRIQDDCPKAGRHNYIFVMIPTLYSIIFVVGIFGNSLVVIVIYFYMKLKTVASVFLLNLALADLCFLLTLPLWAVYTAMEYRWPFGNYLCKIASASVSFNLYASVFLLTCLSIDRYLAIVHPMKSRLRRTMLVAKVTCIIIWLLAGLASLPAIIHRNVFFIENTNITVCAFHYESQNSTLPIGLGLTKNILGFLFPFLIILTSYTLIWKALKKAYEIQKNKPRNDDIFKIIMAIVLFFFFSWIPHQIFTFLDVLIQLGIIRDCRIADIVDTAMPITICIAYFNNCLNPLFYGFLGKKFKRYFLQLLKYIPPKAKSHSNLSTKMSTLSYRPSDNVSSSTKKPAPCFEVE

[6] = luciferase reporter signal suppression in cells – H4 neuroglioma cells, luminescence, dose response (AID 1990); format: functional, cell-based
[7] = Luminescence Cell-Based Dose Response HTS to Identify Inhibitors of 5'UTR Stem-Loop Driven Prion Protein mRNA Translation in H4 Neuroglioblastoma Cells. [Related pubchem assays: 1827 (Project Summary), 1813 (Primary HTS)]; format: functional
[8] = alpha-synuclein stem-loop luciferase translation blockers – H4 neuroglioma cells, luminescence, confirmation (AID 1988); format: functional, cell-based
Beta-galactosidase [9] = target: T1, Beta-galactosidase; test: detection-enzyme interference by beta-gal modulators – biochemical, E. coli enzyme, set 3, artefact control for CCR6 antagonist project, dose response (AID 504712); format: functional
[10] = Luminescence Cell-Based Dose Retest to Confirm Inhibitors of Cancer Stem Cells. [Related pubchem assays (depositor defined):AID2717, AID2721]; format: functional; conditions: Homo sapiens
[11] = NIH-3T3 fibroblast cytotoxicity, dose response, cytotoxicity control, cell-based, fluorescence, Alamar Blue, secondary assay (AID 2327); format: functional;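 note: NIH-3T3 mouse fibroblasts cultured with fluconazole at 8 µg/mL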
[12] = fluconazole-exposed Candida albicans growth modulators – fluorescence, retest, confirmation (AID 2467); format: functional, cell-based
Large T antigen = Large T antigen (Simian virus 40, UniProt P03070); format: functional, Betapolyomavirus macacae;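 note: Confirmatory-stage PubChem screen for compounds that inhibit SV40 T antigen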
[13] = target: T3, Serine/threonine-protein phosphatase (Candida dubliniensis (strain CD36 / CBS 7987 / NCPF 3949 / NRRLY-17841) (Yeast), UniProt B9W6M3); test: blockers of CaCl2-induced CDRE-lacZ signaling – S. cerevisiae, luminescence, secondary, dose response (AID 2388); format: functional, cell-based;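 note: yeast reporter cells carrying a calcineurin-responsive lacZ construct stimulated with calcium chloride; luminescent beta-galactosidase reporter signal in whole cells rather than isolated phosphatase activity; potency for inhibition where a drop in reporter signal means calcineurin blockade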
T3 sequence (B9W6M3 whole entry): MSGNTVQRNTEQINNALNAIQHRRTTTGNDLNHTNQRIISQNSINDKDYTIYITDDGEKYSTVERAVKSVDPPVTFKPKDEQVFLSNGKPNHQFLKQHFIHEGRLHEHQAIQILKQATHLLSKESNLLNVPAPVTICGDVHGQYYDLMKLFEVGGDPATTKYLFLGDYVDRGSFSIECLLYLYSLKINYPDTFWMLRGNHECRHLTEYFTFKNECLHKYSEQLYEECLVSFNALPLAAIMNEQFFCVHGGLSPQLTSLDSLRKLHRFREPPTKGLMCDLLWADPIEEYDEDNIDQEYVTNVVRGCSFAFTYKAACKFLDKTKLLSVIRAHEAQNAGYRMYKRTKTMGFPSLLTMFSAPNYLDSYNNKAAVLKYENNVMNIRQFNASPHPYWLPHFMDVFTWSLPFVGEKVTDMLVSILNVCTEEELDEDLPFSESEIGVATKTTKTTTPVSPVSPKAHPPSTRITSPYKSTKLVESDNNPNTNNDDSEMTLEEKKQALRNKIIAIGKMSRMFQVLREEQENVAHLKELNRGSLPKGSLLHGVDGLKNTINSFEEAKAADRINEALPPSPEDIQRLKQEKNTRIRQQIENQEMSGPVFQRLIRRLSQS

[14] = target: ATP-dependent molecular chaperone HSP82 (Candida albicans (strain WO-1) (Yeast), UniProt C4YTQ8); test: steroid-induced GRE reporter decrease in yeast – S. cerevisiae, luminescence, Hsp90 inhibitor project, dose response (AID 2400); format: functional, cell-based;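 note: beta-galactosidase luminescence from glucocorticoid response element reporter as proxy for Hsp90 function; inhibitor potency where signal loss means Hsp90 inhibition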
[15] = decrease of insulin promoter-GFP reporter – imaging, high-content screening, mouse beta cells (AID 1628); format: functional; conditions: MIN6
[16] = MIN6 cell viability loss – mouse insulinoma, cytotoxicity control, dose response (AID 2122); format: functional;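 note: confirmatory high-throughput counterscreen run to flag cytotoxic compounds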
HEK293 [17] = test: inhibition of NOD1-driven NF-kB reporter – cell-based, luminescence, uHTS, primary screen (AID 1578); format: functional; conditions: Homo sapiens
HEK293 [18] = test: cells; format: functional, cell-based; conditions: Homo sapiens
HEK293 [19] = test: cells; format: functional, cell-based; conditions: Homo sapiens; remark: listed apart in the source
HEK293 [20] = test: NOD2 signaling inhibitors in MDP-stimulated cells, cell-based, uHTS, luminescence (AID 2001); format: functional; conditions: Homo sapiens
[21] = microbe, parasite or virus in culture; format: functional; conditions: Mycobacterium tuberculosis
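Throughout, for AC50: cells exposed to compound for roughly 70 hours or longer before luminescence read.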

T1 sequence (Q8VNN2 whole entry): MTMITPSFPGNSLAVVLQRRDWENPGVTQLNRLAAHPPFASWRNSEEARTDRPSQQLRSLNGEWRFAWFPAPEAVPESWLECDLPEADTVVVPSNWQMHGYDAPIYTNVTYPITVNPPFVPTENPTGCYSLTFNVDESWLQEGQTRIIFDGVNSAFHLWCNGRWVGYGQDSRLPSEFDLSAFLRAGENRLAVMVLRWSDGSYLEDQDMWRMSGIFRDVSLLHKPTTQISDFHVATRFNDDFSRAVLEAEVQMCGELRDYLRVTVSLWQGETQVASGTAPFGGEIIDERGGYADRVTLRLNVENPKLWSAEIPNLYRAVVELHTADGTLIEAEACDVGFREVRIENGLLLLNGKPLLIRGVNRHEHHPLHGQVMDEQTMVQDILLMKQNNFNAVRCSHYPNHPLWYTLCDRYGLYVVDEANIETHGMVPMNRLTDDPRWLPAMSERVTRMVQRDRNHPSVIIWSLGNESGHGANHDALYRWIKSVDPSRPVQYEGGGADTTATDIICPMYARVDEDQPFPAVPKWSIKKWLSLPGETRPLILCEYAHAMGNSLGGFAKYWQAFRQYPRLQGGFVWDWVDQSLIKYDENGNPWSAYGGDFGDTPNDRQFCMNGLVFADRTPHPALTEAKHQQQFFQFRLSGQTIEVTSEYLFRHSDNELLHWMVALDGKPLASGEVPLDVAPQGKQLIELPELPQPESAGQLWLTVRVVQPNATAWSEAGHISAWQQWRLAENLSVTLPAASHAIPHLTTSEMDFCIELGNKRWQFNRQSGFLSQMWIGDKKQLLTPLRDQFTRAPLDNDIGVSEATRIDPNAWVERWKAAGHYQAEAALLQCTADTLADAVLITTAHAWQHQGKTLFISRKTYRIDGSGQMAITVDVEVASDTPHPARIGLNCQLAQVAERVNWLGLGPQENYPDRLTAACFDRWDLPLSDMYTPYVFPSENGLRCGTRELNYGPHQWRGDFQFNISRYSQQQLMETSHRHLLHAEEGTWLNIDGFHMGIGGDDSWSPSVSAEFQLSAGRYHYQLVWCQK
Chain of DNA dC->dU-editing enzyme APOBEC-3A (P31941 whole entry): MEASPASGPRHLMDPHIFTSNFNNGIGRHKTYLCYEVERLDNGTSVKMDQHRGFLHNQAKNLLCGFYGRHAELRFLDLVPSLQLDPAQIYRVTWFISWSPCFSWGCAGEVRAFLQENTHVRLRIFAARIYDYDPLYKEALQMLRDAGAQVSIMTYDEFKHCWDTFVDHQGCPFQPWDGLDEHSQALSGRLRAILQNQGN
Chain of DNA dC->dU-editing enzyme APOBEC-3G (Q9HC16 whole entry): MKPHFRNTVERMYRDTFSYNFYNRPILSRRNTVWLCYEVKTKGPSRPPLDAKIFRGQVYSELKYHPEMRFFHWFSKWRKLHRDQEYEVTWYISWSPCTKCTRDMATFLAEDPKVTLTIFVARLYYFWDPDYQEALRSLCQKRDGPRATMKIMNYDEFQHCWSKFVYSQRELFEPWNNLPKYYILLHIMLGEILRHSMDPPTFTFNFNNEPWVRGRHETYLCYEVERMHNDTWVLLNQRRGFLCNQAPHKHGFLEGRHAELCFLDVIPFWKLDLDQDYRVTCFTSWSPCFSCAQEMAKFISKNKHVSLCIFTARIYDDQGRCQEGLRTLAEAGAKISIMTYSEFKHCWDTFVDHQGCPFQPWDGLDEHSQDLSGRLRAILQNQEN
Chain of ATP-dependent molecular chaperone HSP82 (C4YTQ8 whole entry): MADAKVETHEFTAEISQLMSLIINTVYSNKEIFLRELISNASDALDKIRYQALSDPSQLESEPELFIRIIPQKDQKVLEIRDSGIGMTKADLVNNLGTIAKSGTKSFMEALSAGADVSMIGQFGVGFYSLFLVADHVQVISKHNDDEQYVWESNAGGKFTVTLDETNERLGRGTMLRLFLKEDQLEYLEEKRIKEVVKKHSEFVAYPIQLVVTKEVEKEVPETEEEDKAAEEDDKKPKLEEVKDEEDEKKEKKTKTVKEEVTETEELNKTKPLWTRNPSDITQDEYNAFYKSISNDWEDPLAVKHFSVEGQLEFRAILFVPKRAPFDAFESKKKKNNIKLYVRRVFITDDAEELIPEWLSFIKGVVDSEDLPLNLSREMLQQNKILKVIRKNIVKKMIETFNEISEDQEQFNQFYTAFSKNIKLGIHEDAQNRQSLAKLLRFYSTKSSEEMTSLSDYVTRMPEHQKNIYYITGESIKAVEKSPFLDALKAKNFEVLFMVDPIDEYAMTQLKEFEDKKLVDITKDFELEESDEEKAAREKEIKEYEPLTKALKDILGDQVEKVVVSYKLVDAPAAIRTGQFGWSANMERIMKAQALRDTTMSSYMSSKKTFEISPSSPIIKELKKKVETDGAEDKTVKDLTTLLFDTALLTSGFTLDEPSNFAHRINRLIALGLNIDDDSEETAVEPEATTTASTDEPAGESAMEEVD
Chain of Large T antigen (P03070 whole entry): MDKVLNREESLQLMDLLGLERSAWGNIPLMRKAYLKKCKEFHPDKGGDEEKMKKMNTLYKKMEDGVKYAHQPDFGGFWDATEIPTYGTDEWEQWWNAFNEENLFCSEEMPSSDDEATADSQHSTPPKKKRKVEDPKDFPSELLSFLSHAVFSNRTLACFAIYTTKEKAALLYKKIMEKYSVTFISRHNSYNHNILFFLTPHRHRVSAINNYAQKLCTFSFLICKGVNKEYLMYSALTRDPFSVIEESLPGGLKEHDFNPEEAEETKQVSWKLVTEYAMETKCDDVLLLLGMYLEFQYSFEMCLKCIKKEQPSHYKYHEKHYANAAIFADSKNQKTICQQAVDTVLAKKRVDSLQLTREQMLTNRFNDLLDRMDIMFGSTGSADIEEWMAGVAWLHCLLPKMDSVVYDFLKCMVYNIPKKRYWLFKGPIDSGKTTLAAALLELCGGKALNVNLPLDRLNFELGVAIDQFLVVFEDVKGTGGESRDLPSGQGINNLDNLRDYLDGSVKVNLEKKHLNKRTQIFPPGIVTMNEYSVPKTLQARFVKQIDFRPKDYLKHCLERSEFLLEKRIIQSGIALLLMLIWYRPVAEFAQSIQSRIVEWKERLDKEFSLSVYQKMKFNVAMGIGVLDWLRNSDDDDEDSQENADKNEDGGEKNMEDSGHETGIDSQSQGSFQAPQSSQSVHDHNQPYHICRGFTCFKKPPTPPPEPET
Chain of 5-hydroxytryptamine receptor 2A (P35363 whole entry): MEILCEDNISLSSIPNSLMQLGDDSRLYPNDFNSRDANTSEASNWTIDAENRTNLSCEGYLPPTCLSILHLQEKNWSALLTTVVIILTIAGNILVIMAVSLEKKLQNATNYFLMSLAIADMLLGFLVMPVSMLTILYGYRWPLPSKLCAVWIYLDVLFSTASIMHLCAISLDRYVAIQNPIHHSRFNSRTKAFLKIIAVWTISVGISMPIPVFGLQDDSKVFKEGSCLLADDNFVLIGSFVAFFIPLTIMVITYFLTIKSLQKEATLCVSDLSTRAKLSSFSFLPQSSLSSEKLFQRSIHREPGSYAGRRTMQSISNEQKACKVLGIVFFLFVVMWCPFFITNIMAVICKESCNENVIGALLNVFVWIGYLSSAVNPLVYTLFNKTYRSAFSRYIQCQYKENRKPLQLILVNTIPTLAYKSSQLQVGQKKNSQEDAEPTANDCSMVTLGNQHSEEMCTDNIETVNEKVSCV
Chain of Mu-type opioid receptor (P35372 whole entry): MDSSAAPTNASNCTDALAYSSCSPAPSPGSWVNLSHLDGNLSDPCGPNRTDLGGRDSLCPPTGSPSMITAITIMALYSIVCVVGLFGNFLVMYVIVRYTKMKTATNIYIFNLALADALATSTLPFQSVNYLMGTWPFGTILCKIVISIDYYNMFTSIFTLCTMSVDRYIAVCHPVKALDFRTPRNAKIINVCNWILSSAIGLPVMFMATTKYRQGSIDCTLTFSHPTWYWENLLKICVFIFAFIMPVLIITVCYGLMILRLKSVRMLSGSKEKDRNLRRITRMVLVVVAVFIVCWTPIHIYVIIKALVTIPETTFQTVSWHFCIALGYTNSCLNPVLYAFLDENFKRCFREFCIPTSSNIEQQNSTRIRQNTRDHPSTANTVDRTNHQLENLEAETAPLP

Q: With CCCN1CCC[C@H](c2cccc(O)c2)C1 as the compound, how does the EC50 (Mu-type opioid receptor) read?
A: Its EC50 is 92.4 µM (inactive).

Q: What about the EC50 [1] of the same compound?
A: The EC50 was 0.711 µM (active).

Q: Which results are given for Cc1cc(-c2nnc(S)n2CC(C)C)cs1?
A: IC50 [2]: > 100 µM (inactive); IC50 [3]: 5.87 µM (active)

Q: With CC1=NC(Nc2nc(C)c3ccccc3n2)=NC(C)(C)C1 as the compound, how does the EC50 (Beta-galactosidase [4]) read?
A: Its EC50 is > 40 µM (inactive).

Q: What about the IC50 [5] of the same compound?
A: The IC50 was 13 µM (active).

Q: With NC(=O)c1c(NC(=O)c2ccc([N+](=O)[O-])o2)sc2c1CCCC2 as the compound, how does the EC50 [6] read?
A: The EC50 was 13.3 µM (active).

Q: What about the EC50 [7] of the same compound?
A: The EC50 was 47.5 µM (active).

Q: What about the EC50 [8] of the same compound?
A: The EC50 was 7.76 µM (active).

Q: And the IC50 (Beta-galactosidase [9])?
A: Its IC50 is > 66.6 µM (inactive).

Q: Which results are given for Cc1ccc(-c2cc(-c3ccccc3)nc(NN)n2)cc1?
A: EC50 (Beta-galactosidase [4]): > 40 µM (inactive); IC50 [5]: 6.66 µM (active); AC50 [10]: 5.4 µM (active)

Q: For CCc1cc(S)n2c(nc3ccccc32)c1C#N, which EC50 [11] is on record?
A: Its EC50 is > 150 µM (inactive).

Q: And the EC50 [12]?
A: Its EC50 is 0.254 µM (active).

Q: What about the IC50 (Large T antigen) of the same compound?
A: The IC50 was 99.8 µM (active).

Q: What about the EC50 [13] of the same compound?
A: Its EC50 is > 180 µM (inactive).

Q: What about the EC50 [14] of the same compound?
A: Its EC50 is > 150 µM (inactive).

Q: What does the source list for N#Cc1ccccc1NC(=O)C1SC(Nc2ccccc2)=C(C(=O)Nc2ccc(Cl)cc2)C1=N (stereo not drawn)?
A: IC50 [15]: 8.77 µM (active); IC50 [16]: 6.4 µM (active)

Q: Which results are given for Nc1ccc(S(=O)(=O)Nc2nccc(/C=C/c3cccc(Br)c3)n2)cc1?
A: EC50 (HEK293 [17]): 8.24 µM (active); IC50 (HEK293 [18]): 12.8 µM (active); IC50 (HEK293 [19]): > 20 µM (inactive); IC50 (HEK293 [20]): 7.62 µM (active)

Q: For COC(=O)C(C)Sc1nnc(S)s1 (stereo not drawn), which IC50 [2] is on record?
A: Its IC50 is > 100 µM (inactive).

Q: And the IC50 [3]?
A: Its IC50 is 15.8 µM (active).

Q: For Cc1ccnc(Sc2ccc([N+](=O)[O-])cc2[N+](=O)[O-])n1, which EC50 [11] is on record?
A: Its EC50 is 14.2 µM (active).

Q: And the EC50 [12]?
A: The EC50 was 0.91 µM (active).

Q: What about the CC50 [21] of the same compound?
A: The CC50 was 7.25 µM (active).

Q: And the EC50 [13]?
A: The EC50 was > 180 µM (inactive).

Q: What about the EC50 [14] of the same compound?
A: The EC50 was 23.6 µM (active).

Q: For CC(C)CCn1c(N)c(C(=O)OCC2CCCO2)c2nc3ccccc3nc21 (stereo not drawn), which EC50 (Beta-galactosidase [4]) is on record?
A: Its EC50 is > 40 µM (inactive).

Q: What about the IC50 [5] of the same compound?
A: The IC50 was > 40 µM (not active).
